Like-named read-outs stand apart in the source and are kept apart here.
Test system: 284 cell lines
Assay: cells
Procedure: A screen of 284 cell lines to assess the antiproliferative effect of EHMT2 inhibition was conducted by treating cell lines in 384-well format with a half-log step dilutions of Compound 205 over 10 concentrations with a maximum concentration of 0.1% v/v DMSO. Cells were plated on Day 0 and treated with compound on Day 1. Culture medium was replaced on day 7 and cells redosed. After 10-day incubation, cells were fixed and stained with nuclear dye. Automated fluorescence microscopy was carried out using a Molecular Devices ImageXpress Micro XL high-content imager, and images were collected with a 4× objective. 16-bit TIFF images were acquired and analyzed with MetaXpress 5.1.0.41 software. Cell proliferation was measured by the fluorescence intensity of the incorporated nuclear dye. Cell count IC50 is the test compound concentration at 50% of maximal response of the untreated control.

In the case of CNc1cc(C)nc(Nc2ccc(OC)c(OCCCN3CCCC3)c2)n1 [Compound 205], the IC50 (BM-1604, read-out: Cell Count IC50, BM-1604, Prostate) is reported as greater than 10 µM, the IC50 (C32TG, read-out: Cell Count IC50, C32TG, Skin, Melanoma) is reported as 1 to 10 µM and the IC50 (CEM/C1, read-out: Cell Count IC50, CEM-C1, Hematopoietic, Leukemia) is reported as greater than 10 µM. It also gave an IC50 (CML-T1, read-out: Cell Count IC50, CML-T1, Hematopoietic, Leukemia) of 1 to 10 µM, an IC50 (D341 Med, read-out: Cell Count IC50, D341 Med, Central Nervous System, Medulloblastoma) of 1 to 10 µM and an IC50 (HUH-6-clone5, read-out: Cell Count IC50, HUH-6 Clone 5, Liver) of 1 to 10 µM. For the same molecule, the IC50 (Homo sapiens, 22Rv1, read-out: Cell Count IC50, 22Rv1, Prostate) was 1 to 10 µM, the IC50 (Homo sapiens, 639-V, read-out: Cell Count IC50, 639-V, Bladder) was greater than 10 µM and the IC50 (Homo sapiens, 647-V, read-out: Cell Count IC50, 647-V, Bladder) was 1 to 10 µM. The IC50 (Homo sapiens, 769-P, read-out: Cell Count IC50, 769-P, Kidney) was 1 to 10 µM, the IC50 (Homo sapiens, 786-0, read-out: Cell Count IC50, 786-O, Kidney) was greater than 10 µM and the IC50 (Homo sapiens, A101D, read-out: Cell Count IC50) was 1 to 10 µM. It also gave an IC50 (Homo sapiens, A 172, read-out: Cell Count IC50, A172, Central Nervous System, Glioma) of 1 to 10 µM, an IC50 (Homo sapiens, A204, read-out: Cell Count IC50, A204, Soft & Connective Tissue, Sarcoma) of 0.01 to 0.1 µM and an IC50 (Homo sapiens, A253, read-out: Cell Count IC50, A-253, Head and Neck) greater than 10 µM. For the same molecule, the IC50 (Homo sapiens, A498, read-out: Cell Count IC50, A498, Kidney) was 1 to 10 µM, the IC50 (Homo sapiens, A549, read-out: Cell Count IC50, A549, Lung, NSCLC) was greater than 10 µM and the IC50 (Homo sapiens, A673, read-out: Cell Count IC50, A-673, Soft & Connective Tissue, Sarcoma) was greater than 10 µM. For the same molecule, the IC50 (Homo sapiens, A704, read-out: Cell Count IC50, A-704, Kidney) was 1 to 10 µM, the IC50 (Homo sapiens, A2058, read-out: Cell Count IC50, A2058, Skin, Melanoma) was 1 to 10 µM and the IC50 (Homo sapiens, A-375, read-out: Cell Count IC50, A375, Skin, Melanoma) was 1 to 10 µM. The IC50 (Homo sapiens, A-427, read-out: Cell Count IC50, A427, Lung, NSCLC) was 1 to 10 µM, the IC50 (Homo sapiens, A-431, read-out: Cell Count IC50, A431, Skin, Head and Neck) was 1 to 10 µM and the IC50 (Homo sapiens, ACHN, read-out: Cell Count IC50, ACHN, Kidney) was 1 to 10 µM. For the same molecule, the IC50 (Homo sapiens, AN3-CA, read-out: Cell Count IC50, AN3 CA, Female GU, Uterus) was greater than 10 µM, the IC50 (Homo sapiens, ARH-77, read-out: Cell Count IC50, ARH-77, Hematopoietic, Myeloma) was 1 to 10 µM and the IC50 (Homo sapiens, ASPC1, read-out: Cell Count IC50, AsPC-1, Pancreas) was 1 to 10 µM. The IC50 (Homo sapiens, BE(2)-C, read-out: Cell Count IC50, BE(2)C, Central Nervous System, Neuroblastoma) was greater than 10 µM, the IC50 (Homo sapiens, BFTC-905, read-out: Cell Count IC50, BFTC-905, Bladder) was 0.01 to 0.1 µM and the IC50 (Homo sapiens, BHT-101, read-out: Cell Count IC50, BHT-101, Endocrine, Thyroid) was 1 to 10 µM. It also gave an IC50 (Homo sapiens, BPH-1, read-out: Cell Count IC50, BPH1, Prostate) greater than 10 µM, an IC50 (Homo sapiens, BT-20, read-out: Cell Count IC50, BT20, Breast) greater than 10 µM and an IC50 (Homo sapiens, BT-474, read-out: Cell Count IC50, BT474, Breast) of 1 to 10 µM. The IC50 (Homo sapiens, BT-549, read-out: Cell Count IC50, BT-549, Breast) was greater than 10 µM, the IC50 (Homo sapiens, BV-173, read-out: Cell Count IC50, BV-173, Hematopoietic, Leukemia) was 1 to 10 µM and the IC50 (Homo sapiens, BXPC-3, read-out: Cell Count IC50, BxPC-3, Pancreas) was 1 to 10 µM. The IC50 (Homo sapiens, BeWo, read-out: Cell Count IC50, BeWo, Placenta) was greater than 10 µM, the IC50 (Homo sapiens, C-4-II, read-out: Cell Count IC50, C-4 II, Female GU, Cervix) was greater than 10 µM and the IC50 (Homo sapiens, C-33-A, read-out: Cell Count IC50, C-33A, Female GU, Cervix) was greater than 10 µM. For the same molecule, the IC50 (Homo sapiens, CA46, read-out: Cell Count IC50, CA46, Hematopoietic, Lymphoma) was 1 to 10 µM, the IC50 (Homo sapiens, CAKI-1, read-out: Cell Count IC50, Caki-1, Kidney) was 1 to 10 µM and the IC50 (Homo sapiens, CAKI-2, read-out: Cell Count IC50, Caki-2, Kidney) was 1 to 10 µM. It also gave an IC50 (Homo sapiens, CAL-27, read-out: Cell Count IC50, Cal 27, Head and Neck) of 1 to 10 µM, an IC50 (Homo sapiens, CAL-62, read-out: Cell Count IC50, CAL-62, Endocrine, Thyroid) greater than 10 µM and an IC50 (Homo sapiens, CAMA-1, read-out: Cell Count IC50, CAMA-1, Breast) of 1 to 10 µM. For the same molecule, the IC50 (Homo sapiens, CAPAN-1, read-out: Cell Count IC50, Capan-1, Pancreas) was greater than 10 µM, the IC50 (Homo sapiens, CCF-STTG1, read-out: Cell Count IC50, CCF-STTG1, Central Nervous System, Glioma) was 1 to 10 µM and the IC50 (Homo sapiens, CCRF-CEM, read-out: Cell Count IC50, CCRFCEM, Hematopoietic, Leukemia) was greater than 10 µM. For the same molecule, the IC50 (Homo sapiens, CFPAC-1, read-out: Cell Count IC50, CFPAC-1, Pancreas) was greater than 10 µM, the IC50 (Homo sapiens, CGTH-W-1, read-out: Cell Count IC50, CGTH-W-1, Endocrine, Thyroid) was greater than 10 µM and the IC50 (Homo sapiens, CHL-1, read-out: Cell Count IC50, CHL-1, Skin, Melanoma) was greater than 10 µM. The IC50 (Homo sapiens, CHP-212, read-out: Cell Count IC50, CHP-212, Central Nervous System, Neuroblastoma) was 0.1 to 1 µM, the IC50 (Homo sapiens, COLO 201, read-out: Cell Count IC50, Colo 201, Colon) was 1 to 10 µM and the IC50 (Homo sapiens, COLO 205, read-out: Cell Count IC50, Colo 205, Colon) was 1 to 10 µM. For the same molecule, the IC50 (Homo sapiens, COLO 320DM, read-out: Cell Count IC50, Colo 320DM, Colon) was greater than 10 µM, the IC50 (Homo sapiens, COLO-320-HSR, read-out: Cell Count IC50, Colo 320 HSR, Colon) was greater than 10 µM and the IC50 (Homo sapiens, COLO-829, read-out: Cell Count IC50, COLO 829, Skin, Melanoma) was 1 to 10 µM. For the same molecule, the IC50 (Homo sapiens, COR-L23, read-out: Cell Count IC50, COR-L23, Lung, NSCLC) was 1 to 10 µM, the IC50 (Homo sapiens, COR-L105, read-out: Cell Count IC50, COR-L105, Lung, NSCLC) was 1 to 10 µM and the IC50 (Homo sapiens, Ca-Ski, read-out: Cell Count IC50, Ca Ski, Female GU, Cervix) was 0.1 to 1 µM. For the same molecule, the IC50 (Homo sapiens, Calu-1, read-out: Cell Count IC50, Calu1, Lung, NSCLC) was greater than 10 µM, the IC50 (Homo sapiens, Calu-6, read-out: Cell Count IC50, Calu6, Lung, NSCLC) was greater than 10 µM and the IC50 (Homo sapiens, Caov-3, read-out: Cell Count IC50, CaOV3, Female GU, Ovary) was 1 to 10 µM. For the same molecule, the IC50 (Homo sapiens, Capan-2, read-out: Cell Count IC50, Capan-2, Pancreas) was greater than 10 µM, the IC50 (Homo sapiens, ChaGo-K-1, read-out: Cell Count IC50, ChaGoK1, Lung, NSCLC) was greater than 10 µM and the IC50 (Homo sapiens, D283 Med, read-out: Cell Count IC50, D283 Med, Central Nervous System, Medulloblastoma) was 1 to 10 µM. The IC50 (Homo sapiens, DBTRG-05MG, read-out: Cell Count IC50, DBTRG-05MG, Central Nervous System, Glioma) was 1 to 10 µM, the IC50 (Homo sapiens, DLD-1, read-out: Cell Count IC50, DLD-1, Colon) was greater than 10 µM and the IC50 (Homo sapiens, DMS-53, read-out: Cell Count IC50, DMS53, Lung, SCLC) was 0.1 to 1 µM. It also gave an IC50 (Homo sapiens, DMS-114, read-out: Cell Count IC50, DMS114, Lung, SCLC) of 1 to 10 µM and an IC50 (Homo sapiens, DOHH-2, read-out: Cell Count IC50, DOHH-2, Hematopoietic, Lymphoma) of 1 to 10 µM.

Reference: patent US20240180880A1, “METHODS OF USING EHMT2 INHIBITORS IN TREATING OR PREVENTING BLOOD DISORDERS” (Epizyme, Inc., priority 2017, published 2024)
